# Data as given in paper PMC13197777, “Distinct 2-phenylimidazo[1,2-a]pyridine derivatives that inhibit breast cancer cell proliferation identified as AHR ligands” (iScience, 2026).
# How the values were obtained:
# ERα full-length = biological target: T1, ERα full-length (Homo sapiens, UniProt P03372); assay: PolarScreen ERα Competitor Assay (fluorescence polarization); assay type: binding
# T1 construct: 34 nM ERα full-length and 1.4 nM Fluormone EL Red were incubated; purchased ThermoFisher A15884
# T1 sequence (P03372 1-595): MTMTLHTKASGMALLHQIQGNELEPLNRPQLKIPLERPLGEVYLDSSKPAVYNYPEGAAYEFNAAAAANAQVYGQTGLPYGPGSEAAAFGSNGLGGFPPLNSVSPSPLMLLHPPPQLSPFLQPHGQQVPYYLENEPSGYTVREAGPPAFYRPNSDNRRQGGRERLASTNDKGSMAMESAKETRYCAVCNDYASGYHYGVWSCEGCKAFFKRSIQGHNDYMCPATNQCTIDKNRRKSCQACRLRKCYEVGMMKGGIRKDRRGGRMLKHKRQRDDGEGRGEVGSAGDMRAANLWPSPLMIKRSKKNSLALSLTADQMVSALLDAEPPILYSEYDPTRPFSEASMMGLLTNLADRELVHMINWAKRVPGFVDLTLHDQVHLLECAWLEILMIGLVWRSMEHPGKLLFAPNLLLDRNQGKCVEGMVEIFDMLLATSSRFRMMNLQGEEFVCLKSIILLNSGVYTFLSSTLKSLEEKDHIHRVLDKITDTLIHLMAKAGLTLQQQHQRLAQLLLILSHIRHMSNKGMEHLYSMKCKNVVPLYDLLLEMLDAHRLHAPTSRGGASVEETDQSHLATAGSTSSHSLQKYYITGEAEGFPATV
# Experimental: The PolarScreen Estrogen Receptor-Alpha Competitor Assay, Red (ThermoFisher, A15884) was used to determine if the X compounds bind to ERα. The assay was performed according to the manufacturer’s protocol.
# AHR-Hsp90-XAP2 = biological target: T2, AHR-Hsp90-XAP2 (Homo sapiens, UniProt P35869); assay: Thermal stability measurements (nano-DSF); assay type: binding; conditions: 2.5 μM protein, 12.5 μM compound
# T2 construct: made in house
# Experimental: Thermal denaturation experiments of AHR complexes in the presence of compounds were performed using a Tycho NT.6 instrument (NanoTemper Technologies). Protein samples were prepared as previously described[67] and subsequently diluted in the buffer containing 20 mM Bis-Tris–HCl pH 7.0, 50 mM NaCl, 10 mM KCl, 10 mM MgCl2, 20 mM Na2MoO4 and 2 mM β-mercaptoethanol to a final protein concentration of 2.5 μM. Compound stock solutions were prepared at 20 mM in DMSO and added to the protein samples to yield a final concentration of 12.5 μM. For control measurements, DMSO was added to a final concentration of 5% (v/v). Following ligand or DMSO addition, the samples were gently mixed and incubated at room temperature for 10 min to allow equilibration. Thermal denaturation profiles were acquired over a temperature range of 35°C–95°C, with a heating rate of 1 °C per min. Fluorescence was monitored at emission wavelengths of 330 nm and 350 nm, and the data were analyzed as the first derivative of the fluorescence ratio (F330/F350) as a function of temperature. All experiments were performed in triplicate, and data were analyzed using the Tycho NT.6 software (NanoTemper Technologies) according to the manufacturer’s recommendations.
# ERα in MCF-7 cells = assay: Immunoblot of ERα in MCF-7 cells; assay type: cell-based, human; conditions: MCF-7, 48 h, increasing concentrations up to 1 μM
# Experimental: To determine the relative expression of proteins by Western blotting, cells were first washed with ice-cold phosphate buffered saline (PBS). Subsequently, they were lysed in ice-cold NP40 lysis buffer (1%NP-40, 50 mM Tris-HCl, pH 8.0, 150 mM NaCl, 5 mM Ethylenediaminetetraacetic acid [EDTA], 1 mM PMSF) on ice. DNA was degraded by sonification (five pulses at 50 amplitudes). Protein concentration was determined, and equal amounts of protein were separated on a 9% SDS-PAGE gel. The proteins were transferred onto nitrocellulose membrane by a standard Western blotting protocol and the membranes were incubated with the following antibodies: ERα (Santa Cruz Biotechnology, sc-8002, RRID: AB_627558) and PCNA (Santa Cruz Biotechnology, sc-56, RRID: AB_628110), followed by incubation with HRP labeled Goat anti-mouse Immunoglobulins (DAKO, P0447, RRID: AB_2617137).
# [1] = tested on: ER+ MCF-7, ZR75–1, and T47D breast cancer cells; set-up: method as in PMID 37520743; conditions: previously identified ref 17; cited from earlier work
# [2] = Parallel artificial membrane permeability assay (PAMPA); conditions: for Conc. acceptor well / Conc. donor well: PAMPA after incubation
# Experimental: The plates were stored at – 20 °C until ready for use. Prior to use, the plate was prewarmed at room temperature for 30 min. Donor- and acceptor solutions were prepared as 12 mM phosphate buffered saline with a pH of 6.5 (donor) respectively 7.4 (acceptor). […] Then, 300 μL of each donor solution were filled into the donor (bottom) wells of the PAMPA plate. 200 μL of the acceptor medium were loaded into each well of the pre-coated receiver plate (top). […] The compound concentrations in the donor- and acceptor wells were then determined using a Jasco 2 HPLC system equipped with a ReproSil-Pur 120 ODS-3 column (5 μm, 50 × 2 mm) and UV detection. […] The injection volume was 40 μL and the flow rate 1 mL/min. […] For X15695, two calibration curves were prepared in the presence (donor well) and absence (acceptor well) of 10% ethanol. (Figure S6). The experiments were performed in triplicates.
# Where cA(t) is the compound concentration in the acceptor well in μmol⋅l^−1, cD(t) is the compound concentration in the donor well in […], VA and VD is the volume of the acceptor respectively donor solution per well in mL, A is the membrane area in cm^2 and t the incubation time in seconds (Table S3).
# AHR = biological target: T3, AHR (Homo sapiens, UniProt P35869); assay: AHR luciferase reporter assay in HAHLH cells; assay type: cell-based; conditions: 8 h, % of maximal luciferase activity with dioxin 10 nM, read-out: EC50 AHR transactivation
# T3 construct: endogenous in cells; host or cells: HAHLH (HeLa with XRE-luciferase reporter)
# T3 sequence (P35869 11-848): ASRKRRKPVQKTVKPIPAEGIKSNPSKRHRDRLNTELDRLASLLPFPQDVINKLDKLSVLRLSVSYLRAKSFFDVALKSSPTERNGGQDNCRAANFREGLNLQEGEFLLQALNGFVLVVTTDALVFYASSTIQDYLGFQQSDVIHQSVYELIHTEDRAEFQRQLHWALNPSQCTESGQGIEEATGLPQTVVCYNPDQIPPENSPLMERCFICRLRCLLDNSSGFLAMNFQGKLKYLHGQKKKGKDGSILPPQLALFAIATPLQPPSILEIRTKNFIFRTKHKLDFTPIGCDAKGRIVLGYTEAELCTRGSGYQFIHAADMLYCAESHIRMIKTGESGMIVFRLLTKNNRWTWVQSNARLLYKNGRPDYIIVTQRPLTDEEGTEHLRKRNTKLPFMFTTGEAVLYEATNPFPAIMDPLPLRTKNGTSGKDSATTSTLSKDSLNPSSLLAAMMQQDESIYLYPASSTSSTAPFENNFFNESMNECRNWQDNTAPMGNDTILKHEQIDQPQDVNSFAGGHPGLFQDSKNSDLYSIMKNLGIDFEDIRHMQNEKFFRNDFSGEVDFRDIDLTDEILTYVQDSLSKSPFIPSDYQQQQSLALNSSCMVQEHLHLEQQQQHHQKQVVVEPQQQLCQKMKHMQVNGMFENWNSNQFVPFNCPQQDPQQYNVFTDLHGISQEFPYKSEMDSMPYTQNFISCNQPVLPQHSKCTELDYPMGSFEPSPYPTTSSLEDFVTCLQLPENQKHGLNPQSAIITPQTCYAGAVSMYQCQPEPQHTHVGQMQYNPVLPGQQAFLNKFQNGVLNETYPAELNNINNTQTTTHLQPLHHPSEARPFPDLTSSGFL
# Excerpt: To characterize the chemical induced AHR activity, we used the already established HAHLH reporter cell lines obtained by stably expression of HeLa cells with the dioxin-responsive gene XRE(TnGCGTG)3-tata-luciferase-Luc-hygromycin plasmid.[29] The reporter HELN hERα cell line was obtained by transfecting human HeLa cells with the ERE-responsive gene ERE-βGlobin-luciferase-Luc-neomycin and the pSG5-hERα-puromycin plasmids as previously described.[59] To determine the action of the chemical on AHR and hERα activity, cells were seeded at a density of 50,000 cells per well in 96-well white opaque tissue culture plates (Greiner CellStar) in 150 μL of Dulbecco’s Modified Eagle Medium: Nutrient Mixture F-12 (DMEM/F- 12) without phenol red and 1 g/L glucose and supplemented with 5% stripped fetal bovine serum, 100 units/mL of penicillin, 100 μg/mL of streptomycin (test medium). Twenty-four hours later, chemicals to be tested were added at 4x concentration in culture medium, and cells were incubated at 37 °C for 8 h (HAhLH cells) or 24 h (HELN hERα cells). At the end of the incubation period, culture medium was replaced with test medium containing 0.3 mM luciferin and luciferase activity was measured for 2 s in intact living cells using a MicroBeta Wallac luminometer (PerkinElmer). Tests were performed in quadruplicate at 4x concentration in the same medium in at least 4 independent experiments. Results were expressed as % of the maximal luciferase activity. […] Effective concentration (ECs) for a given compound, EC50 is defined as the concentration inducing 50% of its maximal effect. The EC50 values were calculated including the adjustment for the basal activity of the cell line.
# MCF-7 cells = assay: Clonogenic assay in MCF-7 cells with AHR antagonist CH223191; assay type: cell-based, human; conditions: MCF-7, 10 nM compound, 1 μM CH223191, 14 days
# Experimental: Cells were seeded at a density of 1–2×10^3 cells/well in a 6-well plate and treated with increasing concentrations of the X compounds for 14–21 days. Medium and compounds were renewed every 7 days. The experiments were terminated by fixing the cells with methanol and the colonies formed were visualized after staining with 0.5% crystal violet (w/v) in 20% methanol (v/v). Plates were photographed and the area covered by the colonies was calculated using the ColonyArea Plugin for Fiji (RRID:SCR_003070).[20]
# [3] = tested on: AHR target genes CYP1A1, CYP1B1, ALDH3A1; conditions: human, 16 h, 1 µM
# T2 sequence (P08238 whole entry partner, one chain of several): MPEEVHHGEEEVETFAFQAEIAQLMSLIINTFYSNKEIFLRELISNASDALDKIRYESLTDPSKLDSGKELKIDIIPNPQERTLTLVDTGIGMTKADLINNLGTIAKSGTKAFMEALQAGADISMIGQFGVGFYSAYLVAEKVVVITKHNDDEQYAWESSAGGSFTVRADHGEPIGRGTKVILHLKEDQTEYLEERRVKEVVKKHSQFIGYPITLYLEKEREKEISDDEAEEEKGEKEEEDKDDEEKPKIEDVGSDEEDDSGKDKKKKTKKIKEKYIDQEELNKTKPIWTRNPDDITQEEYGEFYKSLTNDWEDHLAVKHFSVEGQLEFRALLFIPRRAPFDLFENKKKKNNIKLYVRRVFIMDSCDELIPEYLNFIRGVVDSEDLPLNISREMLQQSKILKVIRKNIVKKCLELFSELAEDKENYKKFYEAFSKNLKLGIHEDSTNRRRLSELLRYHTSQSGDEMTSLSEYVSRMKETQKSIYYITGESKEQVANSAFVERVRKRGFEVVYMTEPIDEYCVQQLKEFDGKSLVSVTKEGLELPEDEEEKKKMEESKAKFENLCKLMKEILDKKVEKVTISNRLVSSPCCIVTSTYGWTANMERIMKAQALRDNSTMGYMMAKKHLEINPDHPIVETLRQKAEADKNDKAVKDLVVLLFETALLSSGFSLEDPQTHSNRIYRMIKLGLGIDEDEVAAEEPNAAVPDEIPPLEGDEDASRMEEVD
# T2 sequence (O00170 whole entry partner, one chain of several): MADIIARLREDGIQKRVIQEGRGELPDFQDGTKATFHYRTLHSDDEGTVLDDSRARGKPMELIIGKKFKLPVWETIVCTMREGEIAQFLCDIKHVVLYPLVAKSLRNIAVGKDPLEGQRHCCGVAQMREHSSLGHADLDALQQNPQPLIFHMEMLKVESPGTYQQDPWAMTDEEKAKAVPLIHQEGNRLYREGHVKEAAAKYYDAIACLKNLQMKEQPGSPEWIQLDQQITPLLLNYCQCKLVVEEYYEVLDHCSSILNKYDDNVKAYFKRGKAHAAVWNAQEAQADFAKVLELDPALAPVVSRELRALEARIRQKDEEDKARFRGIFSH
smiles,measurement,setting,value
Cc1cccn2cc(-c3ccccc3F)nc12 [X19718],displacement of the Fluormone tracer from ERα,ERα full-length,failed to displace the Fluormone
same,thermal stabilization of AHR (nano-DSF),AHR-Hsp90-XAP2,promote AHR destabilization
same,ERα destabilization (immunoblot),ERα in MCF-7 cells,no significant ERα destabilization
same,Inhibition of Proliferation,[1],No
Fc1ccccc1-c1cn2ccccc2n1 [X19712],displacement of the Fluormone tracer from ERα,ERα full-length,failed to displace the Fluormone
same,thermal stabilization of AHR (nano-DSF),AHR-Hsp90-XAP2,promote AHR destabilization
same,ERα destabilization (immunoblot),ERα in MCF-7 cells,no significant ERα destabilization
same,Inhibition of Proliferation,[1],No
O=C1NC(=O)C(c2ccccc2)(c2ccccc2)N1 [Phenytoin],Conc. acceptor well,[2]; replica 1,7.15 µM
same,Conc. donor well,[2]; replica 1,112.02 µM
same,Conc. acceptor well,[2]; replica 2,10.14 µM
same,Conc. donor well,[2]; replica 2,117.35 µM
same,Conc. acceptor well,[2]; replica 3,14.06 µM
same,Conc. donor well,[2]; replica 3,120.53 µM
Cn1c(=O)c2c(ncn2C)n(C)c1=O [Caffeine],"Papp at 5 h, 200 µM",[2]; PAMPA,10.7 ×10⁻⁶ cm/s
same,Conc. acceptor well,[2]; replica 1,43.91 µM
same,Conc. donor well,[2]; replica 1,160.76 µM
same,Conc. acceptor well,[2]; replica 2,41.44 µM
same,Conc. donor well,[2]; replica 2,161.45 µM
same,Conc. acceptor well,[2]; replica 3,46.38 µM
same,Conc. donor well,[2]; replica 3,165.23 µM
Cc1cccn2cc(-c3ccc(F)cc3)nc12 [X19167],displacement of the Fluormone tracer from ERα,ERα full-length,failed to displace the Fluormone
same,thermal stabilization of AHR (nano-DSF),AHR-Hsp90-XAP2,promote AHR destabilization
same,EC50,AHR,173 nM
same,ERα destabilization (immunoblot),ERα in MCF-7 cells,no significant ERα destabilization
same,Inhibition of Proliferation,[1],No
"Clc1cc2c(cc1Cl)Oc1cc(Cl)c(Cl)cc1O2 [Dioxin, reference compound]",EC50,AHR,1.24 nM
Fc1ccc(-c2cn3cc(C(F)(F)F)ccc3n2)cc1 [X20046],inhibition of colony expansion in the presence of AHR antagonist CH223191,MCF-7 cells,clearly abrogated by the AHR antagonist CH223191
same,ERα destabilization (immunoblot),ERα in MCF-7 cells,most proficient in destabilizing ERα
same,expression of AHR target genes (RT-PCR),[3],enhanced the transcriptional activity of the AHR target genes in both MCF-7 and T47D cells
same,Inhibition of Proliferation,[1],Yes
